{"source": "patent US9616009B2", "about": "“Composition containing at least one C7 sugar for alopecia treatment, cosmetic treatment of hair and nails, and care of hair, eyelashes or nails” (LABORATOIRES EXPANSCIENCE, priority 2009, dated 2017)", "key": {"IL-1β": {"test_system": "IL-1β", "test": "IL-1β release (ELISA) by keratinocytes stressed with PMA", "assay_type": "cell-based, human", "description": "(§1) We evaluated the capacity to modulate the inflammatory response of the avocado sugars obtained according to Example 1, hereafter called AV119, in human primary keratinocytes stressed with PMA (phorbol myristic acetate).\n(§2) At day 0 (D0), normal human epidermal keratinocytes (NHEK) are seeded in hydrocortisone-free KGM2 medium.\n(§3) At subconfluence (at D1), the NHEK are rinsed with PBS and then pretreated with 0.005% and 0.05% avocado sugars AV119 or 0.1 μM dexamethasone (positive control) (Sigma, product D4902) in hydrocortisone-free KGM2 medium.\n(§4) Twenty-four hours later, the NHEK are treated overnight with 10 μg/ml PMA (phorbol myristate acetate).\n(§5) After incubation, the culture supernatants are collected and stored at −80° C. awaiting the cytokine (IL-1β, TNF-α, IL-8) ELISA (R&D Systems kits).\n(§6) In parallel, the number of living cells is determined by a neutral red test.\n(§7) The quantity of cytokine assayed for each condition (concentration in pg/ml, or OD450) is reduced to the number of living cells by dividing by the OD540 value obtained at the end of the neutral red test.\n(§8) The results are compared statistically using a one way ANOVA followed by a Tukey's test."}, "TNF-α [1]": {"test_system": "TNF-α", "test": "TNF-α release (ELISA) by keratinocytes stressed with PMA", "assay_type": "cell-based, human", "description": "as §1, §2, §3, §4, §5, §6, §7, §8"}, "IL-8 [2]": {"test_system": "IL-8", "test": "IL-8 release (ELISA) by keratinocytes stressed with PMA", "assay_type": "cell-based, human", "description": "as §1, §2, §3, §4, §5, §6, §7, §8"}, "[3]": {"test_system": "tumor cells of Ehrlich's ascites carcinoma", "details": "perseitol associated with a potassium ion; Shibuya et al., Pure Appl. Chem. 1999; cited from earlier work"}, "IL-6 [4]": {"test_system": "IL-6", "test": "IL-6 gene expression (mRNA, real-time PCR) in keratinocytes stressed with LPS", "assay_type": "cell-based, human", "details": "keratinocytes stressed with 10 μg/ml LPS 24 h: LPS alone, or pretreated with 0.1% AV119 24 h, or with 30 μM calpain", "description": "(§9) We evaluated the capacity to modulate the inflammatory response of the avocado sugars obtained according to Example 1, hereafter called AV119, in human primary keratinocytes stressed with LPS (lipopolysaccharide).\n(§10) The cells were pretreated with 0.1% AV119 for 24 h and successively with 10 μg/ml of LPS for 24 h. In another series of experiments, the keratinocytes were pretreated with 30 μM calpain and successively with 10 μg/ml LPS for 24 h. Calpain is a specific inhibitor of the transcription factor NFκB, a key element of the inflammatory cascade. A control of keratinocytes treated only with AV119 was prepared.\n(§11) Expression of mRNA for the cytokines IL-6, IL-8, IL-1α and TNF-α was analyzed by real-time PCR and protein production and release were analyzed by ELISA in the culture supernatants. Moreover, ICAM-1 expression and production were also analyzed. Finally, IκB phosphorylation was analyzed to measure the activation of transcription factor NFκB.\n(§12) Total RNA was extracted with the High Pure RNA Isolation Kit (Roche Diagnostics) according to the manufacturer's recommendations. […] The melting curve was analyzed at the end of each amplification to ensure the absence of non-specific reaction products. […]"}, "IL-8 [5]": {"test_system": "IL-8", "test": "IL-8 gene expression (mRNA, real-time PCR) in keratinocytes stressed with LPS", "assay_type": "cell-based, human", "details": "keratinocytes stressed with 10 μg/ml LPS 24 h: LPS alone, or pretreated with 0.1% AV119 24 h, or with 30 μM calpain", "description": "as §9, §10, §11, §12"}, "IL-1α [6]": {"test_system": "IL-1α", "test": "IL-1α gene expression (mRNA, real-time PCR) in keratinocytes stressed with LPS", "assay_type": "cell-based, human", "details": "keratinocytes stressed with 10 μg/ml LPS 24 h: LPS alone, or pretreated with 0.1% AV119 24 h, or with 30 μM calpain", "description": "as §9, §10, §11, §12"}, "TNF-α [7]": {"test_system": "TNF-α", "test": "TNF-α gene expression (mRNA, real-time PCR) in keratinocytes stressed with LPS", "assay_type": "cell-based, human", "details": "keratinocytes stressed with 10 μg/ml LPS 24 h: LPS alone, or pretreated with 0.1% AV119 24 h, or with 30 μM calpain", "description": "as §9, §10, §11, §12"}, "IL-6 [8]": {"test_system": "IL-6", "test": "IL-6 protein production (ELISA) in keratinocytes stressed with LPS", "assay_type": "cell-based, human", "details": "keratinocytes stressed with 10 μg/ml LPS 24 h: LPS alone, or pretreated with 0.1% AV119 24 h, or with 30 μM calpain; culture supernatant", "description": "as §9, §10, §11\n(§13) A standard protocol was used for the ELISA tests (Phoenix Pharmaceuticals, Inc.)."}, "IL-8 [9]": {"test_system": "IL-8", "test": "IL-8 protein production (ELISA) in keratinocytes stressed with LPS", "assay_type": "cell-based, human", "details": "keratinocytes stressed with 10 μg/ml LPS 24 h: LPS alone, or pretreated with 0.1% AV119 24 h, or with 30 μM calpain; culture supernatant", "description": "as §9, §10, §11, §13"}, "IL-1α [10]": {"test_system": "IL-1α", "test": "IL-1α protein production (ELISA) in keratinocytes stressed with LPS", "assay_type": "cell-based, human", "details": "keratinocytes stressed with 10 μg/ml LPS 24 h: LPS alone, or pretreated with 0.1% AV119 24 h, or with 30 μM calpain; culture supernatant", "description": "as §9, §10, §11, §13"}, "TNF-α [11]": {"test_system": "TNF-α", "test": "TNF-α protein production (ELISA) in keratinocytes stressed with LPS", "assay_type": "cell-based, human", "details": "keratinocytes stressed with 10 μg/ml LPS 24 h: LPS alone, or pretreated with 0.1% AV119 24 h, or with 30 μM calpain; culture supernatant", "description": "as §9, §10, §11, §13"}, "ICAM-1 [12]": {"test_system": "ICAM-1", "test": "ICAM-1 gene expression (mRNA, real-time PCR) in keratinocytes stressed with LPS", "assay_type": "cell-based, human", "details": "keratinocytes stressed with 10 μg/ml LPS 24 h: LPS alone, or with 30 μM calpain", "description": "as §9\nas §10, with “The cells were pretreated with 0.1% AV119 for 24 h and successively with 10 μg/ml of LPS for 24 h.” left out\nas §11\nTotal RNA was extracted with the High Pure RNA Isolation Kit (Roche Diagnostics) according to the manufacturer's recommendations. […] The melting curve was analyzed at the end of each amplification to ensure the absence of non-specific reaction products. Quantification rests on the measure of threshold cycles (CT), which are measured at the beginning of the exponential phase of the reaction and on the normalization of the internal standard curve obtained with the reference gene beta-actin."}, "ICAM-1 [13]": {"test_system": "ICAM-1", "test": "ICAM-1 protein production (ELISA) in keratinocytes stressed with LPS", "assay_type": "cell-based, human", "details": "keratinocytes stressed with 10 μg/ml LPS 24 h: LPS alone, or with 1% AV119, or with 30 μM calpain", "description": "as §9\nas §10, with “The cells were pretreated with 0.1% AV119 for 24 h and successively with 10 μg/ml of LPS for 24 h.” left out\nas §11, §13"}, "[14]": {"test_system": "IκB phosphorylation / transcription factor NFκB", "test": "IκB phosphorylation (Western blot) as measure of NFκB activation in keratinocytes stressed with LPS", "assay_type": "cell-based, human", "details": "keratinocytes stressed with 10 μg/ml LPS; pretreated with 0.1% AV119 or 30 μM calpain", "description": "as §9, §10, §11\nProteins were extracted from the keratinocytes by cold homogenization in lysis buffer (50 mM HEPES pH 7.5, 150 mM NaCl, 1% glycerol, 1% Triton, 1.5 mM MgCl2, 5 mM EGTA) supplemented with 20 mM sodium pyrophosphate, 10 mM sodium orthovanadate and 25 mM NaF and protease inhibitors (aprotinin, phenylmethanesulfonyl fluoride (PMSF)). Protein level was quantified by the Bradford method. […]"}, "[15]": {"details": "0.1 μM dexamethasone, in relation to PMA"}, "[16]": {"details": "NHEK pretreated 24 h with 0.1 μM dexamethasone, then 10 μg/ml PMA overnight"}, "[17]": {"details": "NHEK, 10 μg/ml PMA overnight, PMA alone"}, "[18]": {"details": "PMA 10 μg/ml alone, increase in relation to the untreated control (without PMA)"}}, "data": [{"compound": "C[C@@H]1C[C@H]2[C@@H]3CCC4=CC(=O)C=C[C@]4(C)[C@@]3(F)[C@@H](O)C[C@]2(C)[C@@]1(O)C(=O)CO", "note": "[Dexamethasone, dexamethasone]", "values": [{"measurement": "IL-1β release, % in relation to the control", "setting": "IL-1β; [15]", "value": "−70", "unit": "%"}, {"measurement": "IL-1β pg/ml/OD450 (mean ± SD)", "setting": "IL-1β; [16]", "value": "3.232 ± 0.329", "unit": "pg/ml/OD450"}, {"measurement": "TNF-α release, % in relation to the control", "setting": "TNF-α [1]; [15]", "value": "−44", "unit": "%"}, {"measurement": "TNF-α pg/ml/OD450 (mean ± SD)", "setting": "TNF-α [1]; [16]", "value": "0.328 ± 0.007", "unit": "pg/ml/OD450"}, {"measurement": "IL-8 release, % in relation to the control", "setting": "IL-8 [2]; [15]", "value": "−55", "unit": "%"}, {"measurement": "IL-8 pg/ml/OD450 (mean ± SD)", "setting": "IL-8 [2]; [16]", "value": "0.790 ± 0.089", "unit": "pg/ml/OD450"}]}, {"compound": "CCCCCCCCCCCCCC(=O)O[C@@H]1[C@@H](C)[C@@]2(O)[C@@H](C=C(CO)C[C@]3(O)C(=O)C(C)=C[C@@H]23)[C@@H]2C(C)(C)[C@]12OC(C)=O", "note": "[PMA, phorbol myristate acetate]", "values": [{"measurement": "IL-1β pg/ml/OD450 (mean ± SD)", "setting": "IL-1β; [17]", "value": "10.930 ± 0.190", "unit": "pg/ml/OD450"}, {"measurement": "IL-1β release, % in relation to the control", "setting": "IL-1β; [18]", "value": 1399, "unit": "%"}, {"measurement": "TNF-α pg/ml/OD450 (mean ± SD)", "setting": "TNF-α [1]; [17]", "value": "0.584 ± 0.079", "unit": "pg/ml/OD450"}, {"measurement": "TNF-α release, % in relation to the control", "setting": "TNF-α [1]; [18]", "value": 1091, "unit": "%"}, {"measurement": "IL-8 pg/ml/OD450 (mean ± SD)", "setting": "IL-8 [2]; [17]", "value": "1.765 ± 0.305", "unit": "pg/ml/OD450"}, {"measurement": "IL-8 release, % in relation to the control", "setting": "IL-8 [2]; [18]", "value": 1017, "unit": "%"}]}, {"compound": "OCC(O)C(O)C(O)C(O)C(O)CO", "note": "(stereo not drawn) [perseitol, Perseitol]", "values": [{"measurement": "incorporation of 3H-leucine in tumor cells", "setting": "[3]", "value": "inhibits the incorporation of 3H-leucine"}]}, {"compound": "lipopolysaccharide [LPS]", "values": [{"measurement": "IL-6 gene expression (mRNA, real-time PCR)", "setting": "IL-6 [4]", "value": 54.5}, {"measurement": "IL-8 gene expression (mRNA, real-time PCR)", "setting": "IL-8 [5]", "value": 54.1}, {"measurement": "IL-1α gene expression (mRNA, real-time PCR)", "setting": "IL-1α [6]", "value": 71.5}, {"measurement": "TNF-α gene expression (mRNA, real-time PCR)", "setting": "TNF-α [7]", "value": 68.0}, {"measurement": "IL-6 protein production (ELISA)", "setting": "IL-6 [8]", "value": 76}, {"measurement": "IL-8 protein production (ELISA)", "setting": "IL-8 [9]", "value": 85}, {"measurement": "IL-1α protein production (ELISA)", "setting": "IL-1α [10]", "value": 82}, {"measurement": "TNF-α protein production (ELISA)", "setting": "TNF-α [11]", "value": 96.0}, {"measurement": "ICAM-1 gene expression (mRNA, real-time PCR)", "setting": "ICAM-1 [12]", "value": 53.2}, {"measurement": "ICAM-1 protein production (ELISA)", "setting": "ICAM-1 [13]", "value": 85}, {"measurement": "IκB phosphorylation (activation of transcription factor NFκB), Western blot", "setting": "[14]", "value": "strongly induced IκB phosphorylation"}]}]}
